According to publication PMC12431657, “Discovery and mechanistic insights of dibenzoylmethane as a broad spectrum inhibitor of coronavirus” (PLOS Pathogens, 2025):
Values joined by “and” are separate entries in the source; they are usually repeats but may differ in a detail not shown here. Equal entries are not always repeated. Where two headings read alike, the source gives them in different places.

Tests used:
[1] = test system: HCoV-229E; experiment: Antiviral activity in vitro, viral RNA copies by qRT-PCR, HCoV-229E in Huh-7 cells; format: cell-based; conditions: for EC50: Human coronavirus 229E, Huh-7, 24 h, read-out: EC50 HCoV-229E (Huh-7)
[2] = test system: HCoV-229E; experiment: Antiviral activity in vitro, qRT-PCR, HCoV-229E in MRC-5 cells; format: cell-based; conditions: for EC50: Human coronavirus 229E, MRC5, 24 h, read-out: EC50 HCoV-229E (MRC-5); for HCoV-229E, MRC-5: inhibition at the concentration (Fig2B): replicates
[3] = test system: HCoV-OC43; experiment: Antiviral activity in vitro, qRT-PCR, HCoV-OC43 in RD cells; format: cell-based; conditions: for EC50: Betacoronavirus 1, OC43, RD, 24 h, read-out: EC50 HCoV-OC43 (RD)
[4] = test system: HCoV-OC43; experiment: Antiviral activity in vitro, qRT-PCR, HCoV-OC43 in Huh-7 cells; format: cell-based; conditions: for EC50: Betacoronavirus 1, OC43, Huh-7, 24 h, read-out: EC50 HCoV-OC43 (Huh-7); for HCoV-OC43, Huh-7: inhibition at the concentration (Fig2B): replicates
[5] = test system: HCoV-OC43; conditions: for number of viral RNA copies in HCoV-OC43-infected mice: columbianadin 50 mpk QD, erythromycin estolate 300 mpk QD
[6] = test system: airway inflammation; conditions: 50 mpk; cited from earlier work
[7] = erythromycin estolate exceeding 300 mpk, veratramine exceeding 10 mpk; cited from earlier work
[8] = test system: HCoV-OC43; experiment: Time-of-addition assay; format: cell-based; conditions: replicates
Experimental: To obtain further insight into the stage at which DBM inhibits the replication of HCoV-OC43 and other HCoVs, RD cells were incubated with compounds, including DBM, remdesivir (RDV), and chloroquine (CQ), at different stages of viral infection. Viral RNA from the supernatant was extracted and quantitatively analysed via qRT-PCR. […] For the viral binding assay, cells were cultured in the presence or absence of DBM at different concentrations for 1 hour before being infected with HCoV-OC43 at an MOI of 50, and then were placed on ice for 2 hours for the viral particles to bind to the membrane of the host cells, followed by washing with PBS. […] In addition to binding to receptors from host cells, the spike proteins of HCoV-OC43 could also trigger membrane fusion when HCoV-OC43 spike plasmid-transfected 293T cells were seeded together with RD cells as target cells, and the addition of DBM had no effect on this process (S5C Fig). To examine whether DBM inhibits viral internalisation, cells were inoculated with HCoV-OC43 for 1 hour on ice before being treated with either DBM or DMSO, and CQ was included to prevent endosomal acidification. Subsequently, HCoV-OC43 nucleocapsid proteins were immunostained with CoraLite Plus 488 to assess viral internalisation via confocal microscopy. […] To determine whether DBM influences viral release, we quantified viral RNA both intracellularly and in the supernatant.
To evaluate the effects of DBM on the life cycle of HCoV-229E and HCoV-OC43, fresh culture medium containing 0.6 μM DBM, 0.1 μM remdesivir (RDV), or 10 μM chloroquine (CQ) was supplemented with preseeded cells at different time points relative to infection (entry group: 0 to –2 hours; postinfection group: 2–12 hours; and full-time group: 0 to –12 hours). DMSO served as the control. At 24 hours postinfection, the number of intracellular virus RNA copies was quantified by qRT-PCR as previously described.

[9] = test system: HCoV-OC43; format: cell-based; conditions: transient expression or RDV control, replicates
[10] = conc. 0.1 (unit not given), replicates
[11] = conc. 0.2 (unit not given), replicates
[12] = conc. 0.7 (unit not given), replicates
[13] = conc. 2.2 (unit not given), replicates
[14] = conc. 6.7 (unit not given), replicates
[15] = conc. 20 (unit not given), replicates

| SMILES | EC50 [1] [nM] | EC50 (229E, Huh-7): inhibition at the concentration [1, 10] | EC50 (229E, Huh-7): inhibition at the concentration [1, 11] | EC50 (229E, Huh-7): inhibition at the concentration [1, 12] | EC50 (229E, Huh-7): inhibition at the concentration [1, 13] | EC50 (229E, Huh-7): inhibition at the concentration [1, 14] | EC50 (229E, Huh-7): inhibition at the concentration [1, 15] | EC50 [2] [nM] | HCoV-229E, MRC-5: inhibition at the concentration (Fig2B) ([2]; conc. 0.1 (unit not given)) | HCoV-229E, MRC-5: inhibition at the concentration (Fig2B) ([2]; conc. 0.2 (unit not given)) | HCoV-229E, MRC-5: inhibition at the concentration (Fig2B) ([2]; conc. 0.7 (unit not given)) | HCoV-229E, MRC-5: inhibition at the concentration (Fig2B) ([2]; conc. 2.2 (unit not given)) | HCoV-229E, MRC-5: inhibition at the concentration (Fig2B) ([2]; conc. 6.7 (unit not given)) | HCoV-229E, MRC-5: inhibition at the concentration (Fig2B) ([2]; conc. 20.0 (unit not given)) | EC50 [3] [nM] | EC50 (OC43, RD): inhibition at the concentration [3, 10] | EC50 (OC43, RD): inhibition at the concentration [3, 12] | EC50 (OC43, RD): inhibition at the concentration [3, 13] | EC50 (OC43, RD): inhibition at the concentration [3, 14] | EC50 [4] [nM] | also measured |
| --- | --- | --- | --- | --- | --- | --- | --- | --- | --- | --- | --- | --- | --- | --- | --- | --- | --- | --- | --- | --- | --- |
| C/C=C(/C)C(=O)OC(C)(C)[C@@H]1Cc2c(ccc3ccc(=O)oc23)O1 [Columbianadin, columbianadin] | < 80 | 58.8 and 59.6 and 58 | 70.5 and 77.4 and 76.1 | 68 and 72.5 and 61.2 | 74.2 and 70.6 and 86.9 | 89.7 and 91.5 and 80.4 | 92.4 and 94.9 and 95 | 1550 | 35.3 and 18.1 and 41.4 | 32.0 and 58.2 | 17.5 and 18.6 and 52.2 | 63.2 and 52.3 and 54.8 | 83.3 and 82.1 and 80.5 | 94.9 and 92.9 and 95.1 | 2220 | -25.3 and -42.7 and -34.3 | -23.9 and 2.7 and -3.5 | 49.6 and 48.7 and 52.3 | 93.7 and 94.2 and 94.0 | 190 | EC50 (OC43, RD): inhibition at the concentration [3, 15]: 99.8; HCoV-OC43, Huh-7: inhibition at the concentration (Fig2B) ([4]; conc. 0.1 (unit not given)): 48.4 and 50.8 (2×); HCoV-OC43, Huh-7: inhibition at the concentration (Fig2B) ([4]; conc. 0.2 (unit not given)): 30.0 and 36.0 and 38.1; HCoV-OC43, Huh-7: inhibition at the concentration (Fig2B) ([4]; conc. 0.7 (unit not given)): 73.5 and 75.0 and 75.6; HCoV-OC43, Huh-7: inhibition at the concentration (Fig2B) ([4]; conc. 2.2 (unit not given)): 94.2 and 94.1 and 94.4; HCoV-OC43, Huh-7: inhibition at the concentration (Fig2B) ([4]; conc. 6.7 (unit not given)): 98.5 (2×) and 98.6; HCoV-OC43, Huh-7: inhibition at the concentration (Fig2B) ([4]; conc. 20.0 (unit not given)): 98.4 and 98.3 (2×); Body weight changes ([5]; Columbianadin 50 mpk oral QD, day 0, one value per mouse): 99.0 (4×) and 102.0 (2×); number of viral RNA copies in HCoV-OC43-infected mice [5]: did not significantly reduce; airway inflammation in mice [6]: suppress airway inflammation |
| CCC(=O)O[C@H]1[C@H](O[C@@H]2[C@@H](C)[C@H](O[C@H]3C[C@@](C)(OC)[C@@H](O)[C@H](C)O3)[C@@H](C)C(=O)O[C@H](CC)[C@@](C)(O)[C@H](O)[C@@H](C)C(=O)[C@H](C)C[C@@]2(C)O)O[C@H](C)C[C@@H]1N(C)C [Erythromycin estolate, erythromycin estolate, reference compound] | 3040 | 56.8 and 60.1 and 43.4 | 31.4 and 41.8 and 52.9 | 61.1 and 42.4 and 25.7 | 61.7 and 57.1 and 74.9 | 79.9 and 80.4 and 68.3 | 82.8 and 90.2 and 91.5 | 9210 | 0.6 and 0.5 and 1.3 | 18.6 and 2.4 and -3.2 | 2.2 and 1.5 and 26.7 | 3.2 and -1.4 and 0.1 | 0.7 and 0.9 and 1.2 | 90.1 and 91.7 and 86.2 | 460 | -62.2 and -76.2 (2×) | 73.9 and 79.2 and 79.3 | 69.6 and 71.7 and 71.9 | 83.9 and 85 and 84.5 | 730 | EC50 (OC43, RD): inhibition at the concentration [3, 11]: 31.5 and 23.3 and 28; EC50 (OC43, RD): inhibition at the concentration [3, 15]: 98.4 and 98.5; HCoV-OC43, Huh-7: inhibition at the concentration (Fig2B) ([4]; conc. 0.2 (unit not given)): 18.4 and 11.5 and -3.5; HCoV-OC43, Huh-7: inhibition at the concentration (Fig2B) ([4]; conc. 0.7 (unit not given)): 62.9 and 63.5 and 57.4; HCoV-OC43, Huh-7: inhibition at the concentration (Fig2B) ([4]; conc. 2.2 (unit not given)): 73.5 and 73.6 and 72.3; HCoV-OC43, Huh-7: inhibition at the concentration (Fig2B) ([4]; conc. 6.7 (unit not given)): 95.6 and 95.5 and 95.7; HCoV-OC43, Huh-7: inhibition at the concentration (Fig2B) ([4]; conc. 20.0 (unit not given)): 98.3 (2×) and 98.1; number of viral RNA copies in HCoV-OC43-infected mice [5]: did not significantly reduce; safe use in antitumour mouse models [7]: safely used |
| CCC(CC)COC(=O)[C@H](C)N[P@](=O)(OC[C@H]1O[C@@](C#N)(c2ccc3c(N)ncnn23)[C@H](O)[C@@H]1O)Oc1ccccc1 [RDV] | – | – | – | – | – | – | – | – | – | – | – | – | – | – | – | – | – | – | – | – | time-of-addition, viral inhibition ([8]; Entry): 67.6 and 36.5 and 35.3; time-of-addition, viral inhibition ([8]; Full-Time): 99.4 and 98.9 and 99.6; time-of-addition, viral inhibition ([8]; Post-Entry): 98.3 and 99.4 and 98.6; HCoV-OC43 inhibition (Fig5C) [9]: 97.17 and 71.11 and 82.55 |
| Cc1c([C@H](C)[C@@H]2NC[C@@H](C)C[C@H]2O)ccc2c1C[C@H]1[C@H]2CC=C2C[C@@H](O)CC[C@@]21C [Veratramine, veratramine] | < 80 | – | – | – | – | – | – | 600 | – | – | – | – | – | – | 250 | – | – | – | – | < 80 | EC50 (229E, Huh-7): inhibition at the concentration [1]: 93.4; EC50 (OC43, RD): inhibition at the concentration [3]: 99.8 and 99.2; Body weight changes ([5]; mouse, in vivo): 98.5; safe use in antitumour mouse models [7]: safely used |
